Experimental data taken from patent US7553816B2, “p-amidobenzylethers in drug delivery agents” (priority 2001, dated 2009).
“And” between values parts separate entries of the source, which are not always exact repeats. Equal entries are not always repeated. Where two headings read alike, the source gives them in different places.

How the values were obtained:
[1] = target: T1, Bovine spleen cathepsin B (Bos taurus, UniProt P07688); assay type: biochemical; settings: for Products released upon treatment with cathepsin B: HPLC analysis
T1 construct: Bovine spleen cathepsin B (Sigma-Aldrich); purchased Sigma-Aldrich; host or cells: bovine spleen (tissue-derived)
Procedure: Bovine spleen cathepsin B (Sigma-Aldrich), dissolved in phosphate buffered saline (pH 7.2, 1 mg/mL final concentration), was activated as previously described (Bajkowski, A. S.; Frankfater, A. Specific Spectrophotometric Assays for Cathepsin B. Anal. Biochem. 1975, 68, 119-127). […] In the case of the naphthol ether 2, a 5.0 mM solution in MeOH was diluted to a final concentration of 0.22 mM. Periodically, aliquots were taken, quenched with an equal volume of MeCN, centrifuged, and 100 μL injections analyzed by HPLC (4.6 mm×15 cm C18 column) with detection between 210 and 400 nm. […] The gradient elution was 90% to 10% A over 10 min, followed by 5 min at 10% A, and the flow rate was 1.0 mL/min. The disappearance of substrate and the appearances of released alcohol and Cbz-val-cit were recorded. Cathepsin B hydrolysis rates were calculated according to the disappearance of substrate (Table 7).

[2] = Stability studies in PBS pH 7.2 or acetate buffer pH 5.1 at 37° C., HPLC; assay type: physicochemical; settings: for Stability pH 5.1, loss of starting material: acetate buffer pH 5.1, 37° C.; for Stability pH 5.1, loss of starting material / Stability pH 7.2, loss of starting material: 7 days; for Stability pH 7.2, loss of starting material: phosphate buffered saline pH 7.2, 37° C.; for Stability at pH 5.1 (in words): pH 5.1, 37° C.; for Stability at pH 5.1 (in words) / Stability at pH 7.2 (in words): absence of added enzyme; for Stability at pH 7.2 (in words): pH 7.2, 37° C.
Procedure: The other samples were injected directly into the HPLC.

[3] = pooled human serum, 37° C.; for Stability Human serum, loss of starting material: 7 days
Procedure: Solutions of the substrates (0.08-0.14 mM in DMSO, and 0.22 mM in MeOH for 2) were diluted 10-20-fold in PBS, acetate buffer (25 mM, pH 5.1), or pooled human serum, and incubation was carried out at 37° C. For the serum studies, equal volumes of MeCN were added and the samples were centrifuged prior to HPLC analysis. The other samples were injected directly into the HPLC.

[4] = test system: L2987 human lung adenocarcinoma cells; assay: In vitro cytotoxicity assay, [3H] thymidine incorporation; assay type: cell-based
Procedure: (§1) FIG. 1 is a graph showing the cytotoxic effects on L2987 human lung adenocarcinoma (A and D), WM266/4 (B), and IGR-39 (C) human melanoma cell lines. The cells were exposed to various concentrations of the drugs for 24 h, washed, incubated for a further 48 h, and the cytotoxic activities were quantified through the incorporation of [^3H] thymidine relative to untreated control cells.
(§2) The cell lines (L2987 human lung adenocarcinoma, WM266/4 and IGR-39 human melanomas) were exposed to the agents for 24 h, washed, and viability was determined two days later by measuring the incorporation of ^3H-thymidine compared to the untreated controls.
L2987 human lung adenocarcinoma cells were obtained as previously described (Svensson, H. P.; Vrudhula, V. M.; Emsweiler, J. E.; MacMaster, J. F.; Cosand, W. L.; Senter, P. D.; Wallace, P. M. In Vitro and In Vivo Activities of a Doxorubicin Prodrug in Combination with Monoclonal Antibody β-Lactamase Conjugates. Cancer Res. 1995, 55, 2357-2365). WM266/4 and IGR-39 human melanoma cells were obtained from ATCC (Manassas, Va.) and DSMZ (Braunschweig, Germany), respectively. L2987 and WM266/4 cells were grown in Roswell Park Memorial Institute (RPMI) medium containing 10% fetal bovine serum and 10U/mL penicillin G and 10 μg/mL streptomycin sulfate. Dulbecco's modified Eagle's medium was used in place of RPMI for the IGR-39 cells. The cells (2,500 cells in 0.1 mL medium) were plated into 96-well plates, and after 24 h at 37° C., various concentrations of the drugs in medium (50 μL) were added in triplicate. Incubation was continued for an additional 24 h, the cultures were washed, and fresh medium (0.15 mL) was added. After 48 h at 37° C., [^3H] thymidine (25 μL, 0.5 μCi/well) was added, and the cultures were frozen and harvested 4 h later. Incorporation of label was measured using a β-counter.

[5] = test system: IGR-39 human melanoma cells; settings: 24 h exposure, 48 h further, range stated for all three cell lines
Procedure: as §1, §2
(§3) L2987 human lung adenocarcinoma cells were obtained as previously described (Svensson, H. P.; Vrudhula, V. M.; Emsweiler, J. E.; MacMaster, J. F.; Cosand, W. L.; Senter, P. D.; Wallace, P. M. In Vitro and In Vivo Activities of a Doxorubicin Prodrug in Combination with Monoclonal Antibody β-Lactamase Conjugates. Cancer Res. 1995, 55, 2357-2365). WM266/4 and IGR-39 human melanoma cells were obtained from ATCC (Manassas, Va.) and DSMZ (Braunschweig, Germany), respectively. L2987 and WM266/4 cells were grown in Roswell Park Memorial Institute (RPMI) medium containing 10% fetal bovine serum and 10U/mL penicillin G and 10 μg/mL streptomycin sulfate. […] Incorporation of label was measured using a β-counter.

[6] = test system: WM266/4 human melanoma cells; settings: 24 h exposure, 48 h further, range stated for all three cell lines
Procedure: as §1, §2, §3

cathepsin B = settings: cited from earlier work
[7] = loss of starting material at 37° C. in pH 5.1 acetate buffer

CBZ-VAL-CIT-PAB-O-(N-AC)-NOR [Compound 5]
Products released upon treatment with cathepsin B [1]: no N-acetylnorephedrine was detected
Specific activity of cathepsin B [1, 7]: 145 nmol/ nmol/min/mg
Stability pH 5.1, loss of starting material [2]: 0% loss 7 d
Stability pH 7.2, loss of starting material [2]: 0% loss 7 d

CBZ-VAL-CIT-PAB-OCO-(1S, 2R)-(N-ACETYL)NOREPHEDRINE [Compound 10]
Products released upon treatment with cathepsin B [1]: formation of 4
Specific activity of cathepsin B [1, 7]: 150 nmol/ nmol/min/mg

COc1ccc(/C=C\c2cc(OC)c(OC)c(OC)c2)cc1OCc1ccc(NC(=O)[C@H](CCCNC(N)=O)NC(=O)[C@@H](NC(=O)OCc2ccccc2)C(C)C)cc1 [Compound 7, CBZ-VAL-CIT-PAB-3′-O-COMBRETASTATIN A-4]
Products released upon treatment with cathepsin B [1]: combretastatin A-4 (VIIIb)
Specific activity of cathepsin B [1, 7]: 61 nmol/ nmol/min/mg
Stability pH 5.1, loss of starting material [2]: 0% loss, 7 days
Stability at pH 5.1 (in words) [2]: stable
Stability at pH 7.2 (in words) [2]: stable
Stability pH 7.2, loss of starting material [2]: 0% loss, 7 days
Stability in human serum (in words) [3]: stable
Stability Human serum, loss of starting material [3]: 0% loss, 7 days
Factor less potent than combretastatin A-4 (VIIIb) ([4]; L2987 human lung adenocarcinoma cells (FIG. 1D)): 13

CC(C)[C@H](NC(=O)OCc1ccccc1)C(=O)N[C@@H](CCCNC(N)=O)C(=O)Nc1ccc(COc2cccc3ccccc23)cc1 [Compound 2, CBZ-VAL-CIT-PAB-1-O-NAPHTHOL]
Products released upon treatment with cathepsin B [1]: the products formed were naphthol and Cbz-val-cit-COOH
Specific activity of cathepsin B ([1]; pH 5.1): 350 nmol/min/mg and 350 nmol/ nmol/min/mg
Stability pH 5.1, loss of starting material [2]: 0% loss, 7 days
Stability at pH 5.1 (in words) [2]: no breakdown
Stability at pH 7.2 (in words) [2]: no breakdown
Stability pH 7.2, loss of starting material [2]: 0% loss, 7 days
Stability in human serum (in words) [3]: no breakdown
Stability Human serum, loss of starting material [3]: 0% loss, 7 days

COc1cc([C@@H]2c3cc4c(cc3[C@@H](O[C@@H]3O[C@@H]5CO[C@@H](C)O[C@H]5[C@H](O)[C@H]3O)[C@H]3COC(=O)[C@H]23)OCO4)cc(OC)c1OCc1ccc(NC(=O)[C@H](CCCNC(N)=O)NC(=O)[C@@H](NC(=O)OCc2ccccc2)C(C)C)cc1 [Compound 6, CBZ-VAL-CIT-PAB-O-ETOPOSIDE]
Products released upon treatment with cathepsin B [1]: release of etoposide (VIIIa)
Specific activity of cathepsin B [1, 7]: 160 nmol/ nmol/min/mg
Stability pH 5.1, loss of starting material [2]: 0% loss, 7 days
Stability at pH 5.1 (in words) [2]: stable
Stability at pH 7.2 (in words) [2]: stable
Stability pH 7.2, loss of starting material [2]: 0% loss, 7 days
Cytotoxic activity, times etoposide (VIIIa) more active than 6 [5]: 15-22 times
Cytotoxic activity, times etoposide (VIIIa) more active than 6 [6]: 15-22 times
Cytotoxic activity, times etoposide (VIIIa) more active than 6 ([4]; L2987, 24 h exposure, 48 h further, range stated for all three cell lines): 15-22 times

COc1ccc(/C=C\c2cc(OC)c(OC)c(OC)c2)cc1OC(=O)OCc1ccc(NC(=O)[C@H](CCCNC(N)=O)NC(=O)[C@@H](NC(=O)OCc2ccccc2)C(C)C)cc1 [Compound 11, CBZ-VAL-CIT-PAB-OCO-COMBRETASTATIN A-4]
Products released upon treatment with cathepsin B [1]: VIIIb
Specific activity of cathepsin B [1, 7]: 32 nmol/ nmol/min/mg
Stability in aqueous environments (in words) ([2]; aqueous environments): unstable
Cytotoxicity compared with combretastatin A-4 (VIIIb), in words ([4]; FIG. 1D): as cytotoxic as combretastatin A-4 (VIIIb)

COc1cccc2c1C(=O)c1c(O)c3c(c(O)c1C2=O)CC(O)(C(=O)CO)CC3OC1CC(NC(=O)OCc2ccc(NC(=O)C(CCCNC(N)=O)NC(=O)C(NC(=O)OCc3ccccc3)C(C)C)cc2)C(O)C(C)O1 (stereo not shown) [Cbz-val-cit-PAB-doxorubicin carbamate]
Release of drug upon treatment with cathepsin B (cathepsin B): released active doxorubicin
